Reference: patent publication US10485803B2, “Pyrimidine compounds as JAK kinase inhibitors” (THERAVANCE BIOPHARMA R&D IP, LLC, priority 2016, dated 2019)

Assays:
[1] = molecular target: JAK1 (Homo sapiens (Human), UniProt P23458); assay: LanthaScreen JAK biochemical assay, JAK1
Experimental: (§1) A panel of four LanthaScreen JAK biochemical assays (JAK1, 2, 3 and Tyk2) were carried in a common kinase reaction buffer (50 mM HEPES, pH 7.5, 0.01% Brij-35, 10 mM MgCl2, and 1 mM EGTA). Recombinant GST-tagged JAK enzymes and a GFP-tagged STAT1 peptide substrate were obtained from Life Technologies.
(§2) Serially diluted compounds were pre-incubated with each of the four JAK enzymes and the substrate in white 384-well microplates (Corning) at ambient temperature for 1 h. ATP was subsequently added to initiate the kinase reactions in 10 μl total volume, with 1% DMSO. […] The plates were allowed to incubate at ambient temperature for 1 h before being read on the EnVision reader (Perkin Elmer).
(§3) For dose-response analysis, percent inhibition data were plotted vs. compound concentrations, and IC50 values were determined from a 4-parameter robust fit model with the Prism software (GraphPad Software). Results were expressed as pIC50 (negative logarithm of IC50) and subsequently converted to pKi (negative logarithm of dissociation constant, Ki) using the Cheng-Prusoff equation.

[2] = system: IL-13 induced STAT6 phosphorylation in HT-29 human colorectal adenocarcinoma cells; assay: Cellular JAK potency assay: inhibition of IL-13; format: cell-based; conditions: HT-29 cells
Experimental: The potency of test compounds for inhibition of the JAK-dependent cytokine interleuken-13 (IL-13) was assessed by measuring IL-13 (IL-13, R&D Systems) induced STAT6 phosphorylation in HT-29 human colorectal adenocarcinoma cells (ATCC).
The anti-STAT6 antibody (Cell Signaling Technologies) was conjugated to AlphaScreen acceptor beads (Perkin Elmer), while the anti-pSTAT6 (pTyr641) antibody (Cell Signaling Technologies) was biotinylated using EZ-Link Sulfo-NHS-Biotin (Thermo Scientific).
HT-29 cells were grown at 37° C. in a 5% CO2 humidified incubator in McCoy's 5a Modified medium (ATCC) supplemented with 10% FBS (Hyclone), 100 U/mL penicillin, 100 μg/mL streptomycin (Life Technologies), and 2 mM GlutaMAX (Life Technologies). On day 1 of the assay, cells were seeded at a 7,500 cells/well density in white poly-D-lysine-coated 384-well plates (Corning) with 25 μL medium, and were allowed to adhere overnight in the incubator. On day 2 of the assay, the medium was removed and replaced with 12 μL of assay buffer (Hank's Balanced Salt Solution/HBSS, 25 mM HEPES, and 1 mg/ml bovine serum albumin/BSA) containing dose-responses of test compounds. Compounds were serially diluted in DMSO and then diluted another 1000-fold in media to bring the final DMSO concentration to 0.1%. Cells were incubated with test compounds at 37° C. for 1 h, and followed by the addition of 12 μl of pre-warmed IL-13 (12 ng/ml in assay buffer) for stimulation. After incubating at 37° C. for 30 min, the assay buffer (containing compound and IL-13) was removed, and 10 μl of cell lysis buffer (25 mM HEPES, 0.1% SDS, 1% NP-40, 5 mM MgCl2, 1.3 mM EDTA, 1 mM EGTA, and supplement with Complete Ultra mini protease inhibitors and PhosSTOP from Roche Diagnostics). The plates were shaken at ambient temperature for 30 min before the addition of detection reagents. A mixture of biotin-anti-pSTAT6 and anti-STAT6 conjugated acceptor beads was added first and incubated at ambient temperature for 2 h, followed by the addition of streptavidin conjugated donor beads (Perkin Elmer). After a minimum of 2 h incubation, the assay plates were read on the EnVision plate reader.
Results were expressed as the negative logarithm of the IC50 value, pIC50.

[3] = molecular target: JAK2 (Homo sapiens (Human), UniProt O60674); assay: LanthaScreen JAK biochemical assay, JAK2
JAK2, sequence (O60674 whole entry): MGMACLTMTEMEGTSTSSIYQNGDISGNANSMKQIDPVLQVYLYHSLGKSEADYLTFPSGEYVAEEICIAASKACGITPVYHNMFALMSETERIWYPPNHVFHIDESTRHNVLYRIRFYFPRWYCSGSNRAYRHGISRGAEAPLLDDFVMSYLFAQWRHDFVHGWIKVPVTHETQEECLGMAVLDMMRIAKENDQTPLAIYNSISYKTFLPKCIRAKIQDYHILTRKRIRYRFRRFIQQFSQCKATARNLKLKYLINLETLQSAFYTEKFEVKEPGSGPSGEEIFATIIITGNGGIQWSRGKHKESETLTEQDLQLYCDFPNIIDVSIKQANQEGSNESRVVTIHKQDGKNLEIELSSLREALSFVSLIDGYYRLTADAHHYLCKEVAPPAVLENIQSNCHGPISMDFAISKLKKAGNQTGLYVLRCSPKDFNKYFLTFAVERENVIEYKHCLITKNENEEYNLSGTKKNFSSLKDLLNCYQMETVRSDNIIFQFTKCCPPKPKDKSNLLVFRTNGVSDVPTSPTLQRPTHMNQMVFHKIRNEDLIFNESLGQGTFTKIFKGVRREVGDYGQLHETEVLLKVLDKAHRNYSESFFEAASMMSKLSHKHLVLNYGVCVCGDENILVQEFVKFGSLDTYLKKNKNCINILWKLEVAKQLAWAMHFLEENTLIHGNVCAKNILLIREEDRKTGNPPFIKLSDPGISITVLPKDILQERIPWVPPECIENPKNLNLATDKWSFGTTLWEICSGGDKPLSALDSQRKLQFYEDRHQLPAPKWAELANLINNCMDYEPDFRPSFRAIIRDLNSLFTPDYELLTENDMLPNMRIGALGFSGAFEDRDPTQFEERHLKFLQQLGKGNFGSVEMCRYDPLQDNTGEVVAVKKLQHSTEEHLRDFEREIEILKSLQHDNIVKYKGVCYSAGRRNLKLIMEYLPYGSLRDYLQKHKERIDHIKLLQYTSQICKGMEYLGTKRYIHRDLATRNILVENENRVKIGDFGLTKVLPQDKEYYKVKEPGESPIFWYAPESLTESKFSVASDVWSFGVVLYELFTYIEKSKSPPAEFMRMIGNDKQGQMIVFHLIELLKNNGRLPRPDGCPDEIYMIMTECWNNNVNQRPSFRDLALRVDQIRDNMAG
Experimental: as §1, §2, §3

[4] = Determination of absorption in cannulated rats; format: in vivo, Sprague Dawley rats; conditions: rat, oral vs IV dose, portal vein
Experimental: Oral bioavailability (F %), fraction absorbed (Fa%) and fraction escaping hepatic clearance (Fh%) were determined in Sprague Dawley rats from the following two studies:
(1) Pharmacokinetics in rats following an IV dose of test compound: Following IV dosing, plasma samples were typically collected from 0-6 hr. Drug levels were determined using an LC-MS-MS method. The resulting drug levels were used to compute the IV pharmacokinetic parameters: AUC IV and Dose IV.
(2) Rats that have been cannulated in their portal vein (PV) and also in their jugular vein (JV) were dosed orally with test compound. Following oral dosing, plasma samples were typically collected from 0-6 hr from both the portal vein and the jugular vein. Drug levels were determined using an LC-MS-MS method. The resulting drug levels were used to compute the following pharmacokinetic parameters: AUC PO PV, AUC PO JV, and Dose PO.
Using data derived from the above studies, the oral bioavailability F %, and the quantities Fa% and Fh% were calculated from the following formulas: F%=(AUC PO JV/AUC IV)*(Dose IV/Dose PO)*100 Fa%=(AUC PO PV/AUC IV)*(Dose IV/Dose PO)*100 Fh%=AUC PO JV/AUC PO PV • where: • AUC PO JV=Area under the curve following oral dose and plasma collected from the jugular vein • AUC PO PV=Area under the curve following oral dose and plasma collected from the portal vein • AUC IV=Area under the curve following an intravenous dose • Dose IV=Intravenous Dose in mg/kg • Dose PO=Oral Dose in mg/kg

[5] = system: oxazolone-induced colitis; assay: Mouse model of oxazolone-induced colitis; format: in vivo, BALB/C mice; conditions: mice, PO, 1, 3, and/or 10 mg/kg BID
Experimental: Oxazolone-induced colitis is an experimental model that has a histological resemblance to human ulcerative colitis (Heller et al. […], 2002, 17, 629-638). Adult BALB/C mice from Harlan were used in the assay. On day 1, animals were lightly anesthetized with isoflurane and the hairs between the shoulder were carefully removed before oxazolone (4%, 150 μL, 4:1 acetone: olive oil formulation) or vehicle solution was slowly applied for skin sensitization. Seven days after skin sensitization, the mice were fasted overnight, anesthetized with isoflurane inhalation, and a 1 mL syringe equipped with a 3.5-F catheter, filled with oxazolone solution, was inserted carefully about 4 cm into the colon of the mouse. Following insertion, 50 μL of the oxazolone solution (1%, 1:1 ethanol:water formulation) was injected very slowly (over 30 sec using an injection pump) into the colon. The catheter was removed and the mice were held vertically (head down) for 2 min to ensure that the entire oxazolone solution remained inside the colon. Drug treatment (PO, BID or TID) or vehicle was initiated a day prior to the oxazolone intrarectal (IR) challenge. Two-day post oxazolone intrarectal challenge, the Disease Activity Index (DAI) was assessed by treatment-blinded experimenters for each mouse according to the criteria score: stool consistency score (0, normal; 2, loose; 4, diarrhea), gross bleeding score (0, absence; 2, blood tinged; 4, presence), and weight loss score (0, none; 1, 1%-5%; 2, 5%-10%; 3, 10%-20%; 4, more than 20%); DAI=average of (stool consistency score+gross bleeding score+weight loss score).

[6] = Dynamic moisture sorption assessment; format: physicochemical; conditions: for hygroscopicity: 5% to 90% RH, two cycles of sorption and desorption; for weight gain in the humidity range of 5% to 90% relative humidity: 25° C. / room temperature
Experimental: Dynamic moisture sorption (DMS) measurement was performed using a VTI atmospheric microbalance, SGA-100 system (VTI Corp., Hialeah, Fla. 33016). A weighed sample was used and the humidity was lowest possible value (close to 0% RH) at the start of the analysis. The DMS analysis consisted of an initial drying step (0% RH) for 120 minutes, followed by two cycles of sorption and desorption with a scan rate of 5% RH/step over the humidity range of 5% RH to 90% RH. The DMS run was performed isothermally at 25° C.

JAK1, sequence (P23458 whole entry): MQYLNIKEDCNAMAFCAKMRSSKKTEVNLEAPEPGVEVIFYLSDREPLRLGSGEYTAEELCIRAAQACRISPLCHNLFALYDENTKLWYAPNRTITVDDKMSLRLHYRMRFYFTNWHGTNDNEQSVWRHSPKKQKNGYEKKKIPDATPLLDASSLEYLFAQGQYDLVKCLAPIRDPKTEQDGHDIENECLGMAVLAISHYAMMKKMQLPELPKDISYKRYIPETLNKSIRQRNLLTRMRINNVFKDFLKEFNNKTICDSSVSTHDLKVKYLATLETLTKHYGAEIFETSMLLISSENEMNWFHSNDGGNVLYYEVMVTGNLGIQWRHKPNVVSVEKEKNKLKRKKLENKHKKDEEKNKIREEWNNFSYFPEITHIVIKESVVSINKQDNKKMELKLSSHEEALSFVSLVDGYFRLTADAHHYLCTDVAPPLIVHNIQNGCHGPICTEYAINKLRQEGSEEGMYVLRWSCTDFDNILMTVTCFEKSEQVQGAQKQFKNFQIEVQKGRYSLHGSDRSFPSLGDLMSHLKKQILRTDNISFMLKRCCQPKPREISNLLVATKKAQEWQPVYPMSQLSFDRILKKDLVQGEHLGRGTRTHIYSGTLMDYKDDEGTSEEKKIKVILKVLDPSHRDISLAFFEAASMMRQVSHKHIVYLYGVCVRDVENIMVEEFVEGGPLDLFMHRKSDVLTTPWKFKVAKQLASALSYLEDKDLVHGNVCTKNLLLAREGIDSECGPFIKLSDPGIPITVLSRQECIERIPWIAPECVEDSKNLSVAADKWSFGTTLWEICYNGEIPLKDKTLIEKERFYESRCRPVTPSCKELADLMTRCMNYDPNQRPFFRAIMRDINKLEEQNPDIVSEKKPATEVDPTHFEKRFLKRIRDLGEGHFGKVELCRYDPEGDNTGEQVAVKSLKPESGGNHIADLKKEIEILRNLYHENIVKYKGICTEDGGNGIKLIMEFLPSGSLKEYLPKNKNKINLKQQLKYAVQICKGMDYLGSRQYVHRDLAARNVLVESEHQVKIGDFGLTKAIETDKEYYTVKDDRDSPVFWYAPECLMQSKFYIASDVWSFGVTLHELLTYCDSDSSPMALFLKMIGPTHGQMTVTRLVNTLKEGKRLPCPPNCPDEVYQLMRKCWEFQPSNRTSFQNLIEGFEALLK

Compound: COc1cc(Nc2cc(CO)[nH]n2)nc(N[C@@H]2C[C@H]3CCC[C@@H](C2)N3S(=O)(=O)N2CC(C#N)C2)n1 [Example 1-6, 1-(((1R,3s,5S)-3-((4-((5-(hydroxymethyl)-1H-pyrazol-3-yl)amino)-6-methoxypyrimidin-2-yl)amino)-9-azabicyclo[3.3.1]nonan-9-yl)sulfonyl)azetidine-3-carbonitrile]
- JAK 1 (pKi) [1]: A (A represents a pKi value ≥10 (Ki≤0.1 nM))

Compound: COc1cc(Nc2cc(CO)[nH]n2)nc(N[C@@H]2C[C@H]3CCC[C@@H](C2)N3S(=O)(=O)c2ccccc2)n1 [Example 1-8, (3-((6-methoxy-2-(((1R,3s,5S)-9-(phenylsulfonyl)-9-azabicyclo[3.3.1]nonan-3-yl)amino)pyrimidin-4-yl)amino)-1H-pyrazol-5-yl)methanol]
- HT-29 (pIC50) [2]: A (A represents a pIC50 value ≥7.5 (IC50≤32 nM))
- JAK 1 (pKi) [1]: A (A represents a pKi value ≥10 (Ki≤0.1 nM))

Compound: COc1cc(Nc2cc(CO)[nH]n2)nc(N(C)[C@@H]2C[C@H]3CCC[C@@H](C2)N3S(=O)(=O)N2CCCC2)n1 [Example 1-13, (3-((6-methoxy-2-(methyl((1R,3s,5S)-9-(pyrrolidin-1-ylsulfonyl)-9-azabicyclo[3.3.1]nonan-3-yl)amino)pyrimidin-4-yl)amino)-1H-pyrazol-5-yl)methanol]
- HT-29 (pIC50) [2]: A (A represents a pIC50 value ≥7.5 (IC50≤32 nM))
- JAK 1 (pKi) [1]: A (A represents a pKi value ≥10 (Ki≤0.1 nM))
- JAK 2 (pKi) [3]: A (A represents a pKi value ≥10 (Ki≤0.1 nM))

Compound: COc1cc(Nc2cc(CO)[nH]n2)nc(N(C)[C@@H]2C[C@H]3CCC[C@@H](C2)N3S(=O)(=O)C2CC2)n1 [Example 1-14, (3-((2-(((1R,3s,5S)-9-(cyclopropylsulfonyl)-9-azabicyclo[3.3.1]nonan-3-yl)(methyl)amino)-6-methoxypyrimidin-4-yl)amino)-1H-pyrazol-5-yl)methanol]
- HT-29 (pIC50) [2]: A (A represents a pIC50 value ≥7.5 (IC50≤32 nM))
- JAK 2 (pKi) [3]: A (A represents a pKi value ≥10 (Ki≤0.1 nM))

Compound: COc1cc(Nc2cc(CO)[nH]n2)nc(N(C)[C@@H]2C[C@H]3CCC[C@@H](C2)N3S(=O)(=O)c2cccnc2)n1 [Example 1-15, (3-((6-methoxy-2-(methyl((1R,3s,5S)-9-(pyridin-3-ylsulfonyl)-9-azabicyclo[3.3.1]nonan-3-yl)amino)pyrimidin-4-yl)amino)-1H-pyrazol-5-yl)methanol]
- JAK 2 (pKi) [3]: A (A represents a pKi value ≥10 (Ki≤0.1 nM))

Compound: COc1cc(Nc2cc(CO)[nH]n2)nc(N(C)[C@@H]2C[C@H]3CCC[C@@H](C2)N3S(=O)(=O)N2CCC2)n1 [Example 1-17, (3-((2-(((1R,3s,5S)-9-(azetidin-1-ylsulfonyl)-9-azabicyclo[3.3.1]nonan-3-yl)(methyl)amino)-6-methoxypyrimidin-4-yl)amino)-1H-pyrazol-5-yl)methanol]
- HT-29 (pIC50) [2]: A (A represents a pIC50 value ≥7.5 (IC50≤32 nM))
- JAK 2 (pKi) [3]: A (A represents a pKi value ≥10 (Ki≤0.1 nM))

Compound: COc1cc(Nc2cc(CO)[nH]n2)nc(N(C)[C@@H]2C[C@H]3CCC[C@@H](C2)N3S(=O)(=O)c2cncc(F)c2)n1 [Example 1-19, (3-((2-(((1R,3s,5S)-9-((5-fluoropyridin-3-yl)sulfonyl)-9-azabicyclo[3.3.1]nonan-3-yl)(methyl)amino)-6-methoxypyrimidin-4-yl)amino)-1H-pyrazol-5-yl)methanol]
- HT-29 (pIC50) [2]: A (A represents a pIC50 value ≥7.5 (IC50≤32 nM))

Compound: COc1cc(Nc2cc(CO)[nH]n2)nc(N(C)[C@@H]2C[C@H]3CCC[C@@H](C2)N3S(C)(=O)=O)n1 [Example 3, (3-((6-methoxy-2-(methyl((1R,3s,5S)-9-(methylsulfonyl)-9-azabicyclo[3.3.1]nonan-3-yl)amino)pyrimidin-4-yl)amino)-1H-pyrazol-5-yl)methanol]
- absorption at the portal vein (Fa%) [4]: greater than 40%

Compound: COCCS(=O)(=O)N1[C@@H]2CCC[C@H]1C[C@H](N(C)c1nc(Nc3cc(CO)[nH]n3)cc(OC)n1)C2 [Example 4, (3-((6-methoxy-2-(((1R,3s,5S)-9-((2-methoxyethyl)sulfonyl)-9-azabicyclo[3.3.1]nonan-3-yl)(methyl)amino)pyrimidin-4-yl)amino)-1H-pyrazol-5-yl)methanol]
- decrease in DAI score as compared with vehicle treated animals [5]: statistically significant decrease
- absorption at the portal vein (Fa%) [4]: greater than 40%

Compound: COc1cc(Nc2cc(CO)[nH]n2)nc(N(C)[C@@H]2C[C@H]3CCC[C@@H](C2)N3C(=O)C(F)F)n1 [Example 9, 2,2-difluoro-1-((1R,3s,5S)-3-((4-((5-(hydroxymethyl)-1H-pyrazol-3-yl)amino)-6-methoxypyrimidin-2-yl)(methyl)amino)-9-azabicyclo[3.3.1]nonan-9-yl)ethan-1-one]
- IC50 ([2]; Homo sapiens, read-out: HT-29 (pIC50) (converted)): 31.6 to 200 nM

Compound: COc1cc(Nc2cc(CO)[nH]n2)nc(N(C)[C@@H]2C[C@H]3CCC[C@@H](C2)N3S(=O)(=O)N2CC(C#N)C2)n1 [Form I, 1-(((1R,3s,5S)-3-((4-((5-(hydroxymethyl)-1H-pyrazol-3-yl)amino)-6-methoxypyrimidin-2-yl)(methyl)amino)-9-azabicyclo[3.3.1]nonan-9-yl)sulfonyl)azetidine-3-carbonitrile]
- hygroscopicity [6]: non-hygroscopic
- weight gain in the humidity range of 5% to 90% relative humidity [6]: less than 0.4%
- weight gain in the humidity range of 5% to 90% relative humidity ([6]; listed as Crystalline 1-((1R,3s,5S)-3-((4-((5-(hydroxymethyl)-1H-pyrazol-3-yl)amino)-6-me)))): less than 0.4%

Compound: COc1cc(Nc2cc(CO)[nH]n2)nc(N(C)[C@@H]2C[C@H]3CCC[C@@H](C2)N3S(=O)(=O)N2CC(C#N)C2)n1 [Form II, 1-(((1R,3s,5S)-3-((4-((5-(hydroxymethyl)-1H-pyrazol-3-yl)amino)-6-methoxypyrimidin-2-yl)(methyl)amino)-9-azabicyclo[3.3.1]nonan-9-yl)sulfonyl)azetidine-3-carbonitrile]
- hygroscopicity [6]: slightly hygroscopic
- weight gain in the humidity range of 5% to 90% relative humidity [6]: about 1.2%
